Measured values as given in ChEMBL document CHEMBL1949595, “Fluorinated ΔF508-CFTR correctors and potentiators for PET imaging” (Bioorg Med Chem Lett, 2012).

Experiments:
[1] = biological target: Cystic fibrosis transmembrane conductance regulator (Homo sapiens, UniProt P13569, F508DEL); assay: Corrector activity at human CFTR delta F508 mutant expressed in rat FRT cells coexpressing fluorescent protein YFP-H148Q/1152L by fluorescence assay; type: cell-based
[2] = Potentiation activity at human CFTR delta F508 mutant-mediated iodine flux expressed in rat FRT cells coexpressing fluorescent protein YFP-H148Q/1152L by fluorescence assay; type: cell-based

Sequence of Cystic fibrosis transmembrane conductance regulator (P13569 as listed by the source): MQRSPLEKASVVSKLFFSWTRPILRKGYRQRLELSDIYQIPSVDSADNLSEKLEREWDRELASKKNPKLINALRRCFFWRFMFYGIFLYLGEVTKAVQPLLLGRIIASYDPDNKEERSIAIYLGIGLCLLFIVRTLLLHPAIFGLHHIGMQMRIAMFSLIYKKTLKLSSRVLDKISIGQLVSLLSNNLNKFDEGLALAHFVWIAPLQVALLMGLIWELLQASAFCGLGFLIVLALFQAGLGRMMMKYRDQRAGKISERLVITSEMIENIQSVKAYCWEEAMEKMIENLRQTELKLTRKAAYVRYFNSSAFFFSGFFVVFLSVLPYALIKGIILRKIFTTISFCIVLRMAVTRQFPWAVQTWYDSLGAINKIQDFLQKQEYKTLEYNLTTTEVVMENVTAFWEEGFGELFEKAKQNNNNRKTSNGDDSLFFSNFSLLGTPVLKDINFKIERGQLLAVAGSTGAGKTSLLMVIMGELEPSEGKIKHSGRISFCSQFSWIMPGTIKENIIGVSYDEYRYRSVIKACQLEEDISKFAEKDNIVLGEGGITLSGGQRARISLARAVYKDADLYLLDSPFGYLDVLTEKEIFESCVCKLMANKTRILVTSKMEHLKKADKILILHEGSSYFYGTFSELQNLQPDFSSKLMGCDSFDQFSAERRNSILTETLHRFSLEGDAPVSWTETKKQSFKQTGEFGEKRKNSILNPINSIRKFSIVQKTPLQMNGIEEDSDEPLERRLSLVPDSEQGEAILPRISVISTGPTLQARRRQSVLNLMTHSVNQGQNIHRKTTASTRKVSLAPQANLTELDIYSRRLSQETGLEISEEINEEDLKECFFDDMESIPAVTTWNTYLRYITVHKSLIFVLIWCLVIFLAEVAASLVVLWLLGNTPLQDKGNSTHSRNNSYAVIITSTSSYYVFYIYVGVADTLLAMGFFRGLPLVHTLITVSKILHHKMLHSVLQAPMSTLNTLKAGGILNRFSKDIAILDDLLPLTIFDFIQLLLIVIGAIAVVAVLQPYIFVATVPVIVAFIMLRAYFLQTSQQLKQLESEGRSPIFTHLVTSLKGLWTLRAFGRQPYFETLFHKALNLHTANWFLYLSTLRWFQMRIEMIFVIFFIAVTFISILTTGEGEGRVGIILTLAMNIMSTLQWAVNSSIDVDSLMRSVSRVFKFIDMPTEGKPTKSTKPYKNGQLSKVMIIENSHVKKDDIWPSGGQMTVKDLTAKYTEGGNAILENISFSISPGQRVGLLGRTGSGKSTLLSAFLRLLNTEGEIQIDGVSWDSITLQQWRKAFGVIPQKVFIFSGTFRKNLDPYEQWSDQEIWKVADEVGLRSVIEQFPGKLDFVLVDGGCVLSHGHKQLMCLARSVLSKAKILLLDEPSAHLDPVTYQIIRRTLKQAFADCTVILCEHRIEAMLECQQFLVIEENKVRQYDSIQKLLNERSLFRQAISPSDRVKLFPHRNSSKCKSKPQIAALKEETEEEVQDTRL

Question: With `COc1ccc(Cl)cc1Nc1nc(-c2sc(NC(=O)c3ccccc3)nc2C)cs1` as the compound, how does the EC50 [1] read?
Answer: 2300 nM

Question: For `COc1ccc(Cl)cc1Nc1nc(-c2sc(NC(=O)c3ccc([19F])cc3)nc2C)cs1`, which EC50 [1] is on record?
Answer: 1400 nM

Question: For `CN(C(=O)Cc1c[nH]c2ccccc12)[C@H](C(=O)Nc1ccc(-n2cc(CCC[19F])nn2)cc1)c1ccccc1`, which EC50 [2] is on record?
Answer: 1100 nM

Question: Which EC50 [1] does the source give for `Cc1nc(NC(=O)c2ccc([19F])cc2)sc1-c1csc(Nc2cc(N(C)C)ccc2Cl)n1` here?
Answer: 1400 nM

Question: With `CN(C(=O)Cc1c[nH]c2ccccc12)[C@H](C(=O)Nc1ccc([19F])cc1)c1ccccc1` as the compound, how does the EC50 [2] read?
Answer: 90 nM
